Entries after “also recorded” stand apart in the source; their conditions may differ. Where a SMILES comes first, the peptide text is derived from it. Bridges are numbered along the chain shown (N, C = ends). [ ]: non-standard residue; d: D form. 2Nal = N[C@@H](Cc1ccc2ccccc2c1)C(=O)O; d2Nal = N[C@H](Cc1ccc2ccccc2c1)C(=O)O; Nle = CCCC[C@H](N)C(=O)O
Assays:
Type in all cases: cell-based
frog (Rana pipiens) skin = assay: Frog skin bioassay (skin darkening, photoreflectance); settings: for Frog Skin: agonist/antagonist activity: melanin dispersion vs α-MSH
Method: Bioassays were performed on frog (Rana pipiens) skin according to published protocols [see J. Med. Chem. 30:2126 (1987) and Gen. Comp. Endocrinol. 55:104 (1984)]. Briefly, in these assays the darkening of skin due to dispersion of melanin granules within the melanocytes in response to the melanotropin peptides according to the present invention is measured by photoreflectance methods. The agonist potency of each peptide was determined from the dose response curves comparing the skin darkening with that produced by the native hormone, α-MSH. Prolongation of the biological response was measured by continued monitoring of the melanosome dispersion for up to 3 hours following removal of the peptide in the bathing solution through washing of the skins. The antagonistic activity profile was measured by pre-incubating the skins for 1 hour in various concentrations of the antagonist. After pre-incubation, a known concentration of α-MSH was added and its melanotropic activity determined. Dose-response curves generated for α-MSH in this manner were used to determine the pA2 values (representing the -log10 of the average molar concentration of the antagonist that will reduce the response of α-MSH (agonist) from 2X units to X units) [see Br. J. Pharmacol. 2:189 (1947)].

mMC5-R = target: T1, mMC5-R (Mus musculus, UniProt P41149); assay: cAMP-dependent pCRE/β-galactosidase reporter assay in Clonal 293 cells expressing mouse MC5-R; settings: for mMC5-R: agonist/antagonist activity: cAMP/β-galactosidase
T1 construct: expressed in transfected cells
T1 sequence (P41149 whole entry): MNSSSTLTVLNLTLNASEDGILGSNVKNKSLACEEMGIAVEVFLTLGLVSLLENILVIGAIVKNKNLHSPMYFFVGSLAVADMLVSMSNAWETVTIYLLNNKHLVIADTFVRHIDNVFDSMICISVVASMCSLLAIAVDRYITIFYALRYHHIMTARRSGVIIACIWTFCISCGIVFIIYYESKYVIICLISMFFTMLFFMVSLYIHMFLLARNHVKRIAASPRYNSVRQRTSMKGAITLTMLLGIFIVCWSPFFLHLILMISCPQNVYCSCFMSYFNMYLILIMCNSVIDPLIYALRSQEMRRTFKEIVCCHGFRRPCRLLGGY
Method: Transduction was measured by its affect on cAMP production using the following method.
(§1) 4 μg of pCRE/β-galactosidase DNA was used for transfection of a 10 cm dish of cells. After 15 to 24 hours post-transfection, cells were split into 96-well plates with 20,000 to 30,000 cells per well, and incubated at 37° C. in a 5% CO2 incubator until 48 hours post-transfection.Cells were then stimulated with different peptides diluted in stimulation medium (Dulbecco's modified Eagle's medium containing 0.1 mg/ml bovine serum albumin and 0.1 mM isobutylmethylxanthine) for 6 hours. Agonist activity was measured by stimulating cells with various concentrations of peptide, and antagonist activity was measured by stimulating MC3 and MC4 receptor cell lines with […]. After stimulation, cells were lysed in 50 μl lysis buffer (250 mM Tris-HCl, pH 8.0, 0.1% Triton X-100), frozen and thawed, and then assayed for b-galactosidase activity.

hMC4-R = target: T2, hMC4-R (Homo sapiens, UniProt P32245); assay: cAMP-dependent pCRE/β-galactosidase reporter assay in Clonal 293 cells expressing human MC4-R; settings: for hMC4-R: agonist/antagonist activity: cAMP/β-galactosidase
T2 construct: expressed in transfected cells
T2 sequence (P32245 whole entry): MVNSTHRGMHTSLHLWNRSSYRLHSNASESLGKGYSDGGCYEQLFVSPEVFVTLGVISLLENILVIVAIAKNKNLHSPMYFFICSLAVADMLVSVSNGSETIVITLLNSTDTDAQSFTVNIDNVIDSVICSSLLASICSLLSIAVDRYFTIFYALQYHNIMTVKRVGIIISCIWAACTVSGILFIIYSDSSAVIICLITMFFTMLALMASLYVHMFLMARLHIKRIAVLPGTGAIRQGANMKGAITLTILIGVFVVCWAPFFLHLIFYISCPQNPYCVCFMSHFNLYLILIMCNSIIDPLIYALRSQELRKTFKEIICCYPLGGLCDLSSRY
Method: (§2) The peptides according to the present invention were assayed for agonist and antagonist activity using cloned hMC1, mMC1-R, hMC3-R, hMC4-R and mMC5-R transfected into the stable cell line Clonal 293. Transduction was measured by its affect on cAMP production using the following method.
as §1, with “Clonal 293 cell lines expressing the human MSH receptor, human MC3-R, human MC4-R, and mouse MC5-R were transfected with a pCRE/β-galactosidase construct using a CaPO4 method [see Mol. Cell. Biol. 7:2745 (1987)]. 4 μg” for “4 μg”

hMC3-R = target: T3, hMC3-R (Homo sapiens, UniProt P41968); assay: cAMP-dependent pCRE/β-galactosidase reporter assay in Clonal 293 cells expressing human MC3-R; settings: for hMC3-R: agonist/antagonist activity: cAMP/β-galactosidase
T3 construct: expressed in transfected cells
T3 sequence (P41968 whole entry): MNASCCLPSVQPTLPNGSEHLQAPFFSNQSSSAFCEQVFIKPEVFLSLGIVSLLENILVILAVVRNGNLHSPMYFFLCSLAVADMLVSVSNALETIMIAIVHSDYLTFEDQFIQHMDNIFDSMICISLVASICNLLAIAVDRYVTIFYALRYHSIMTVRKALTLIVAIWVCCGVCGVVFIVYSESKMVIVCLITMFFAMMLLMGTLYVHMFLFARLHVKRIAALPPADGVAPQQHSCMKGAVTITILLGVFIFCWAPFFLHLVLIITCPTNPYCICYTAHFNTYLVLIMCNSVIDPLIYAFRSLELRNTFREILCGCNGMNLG
Method: as §2
as §1, with “Clonal 293 cell lines expressing the human MSH receptor, human MC3-R, human MC4-R, and mouse MC5-R were transfected with a pCRE/β-galactosidase construct using a CaPO4 method [see Mol. Cell. Biol. 7:2745 (1987)]. 4 μg” for “4 μg”

Compound | Frog Skin: agonist/antagonist activity (frog (Rana pipiens) skin) | Frog Skin: reversibility of antagonism (frog (Rana pipiens) skin) | mMC5-R: potency range (mMC5-R) | mMC5-R: agonist/antagonist activity (mMC5-R) | hMC4-R: potency range (hMC4-R) | hMC4-R: agonist/antagonist activity (hMC4-R) | hMC3-R: potency range (hMC3-R) | hMC3-R: agonist/antagonist activity (hMC3-R)
CCCC[C@H](NC(C)=O)C(=O)N[C@H]1CC(=O)NCCCC[C@@H](C(N)=O)NC(=O)[C@@H](Cc2ccc3ccccc3c2)NC(=O)[C@H](CCCNC(=N)N)NC(=O)[C@@H](Cc2ccc3ccccc3c2)NC(=O)[C@H](Cc2c[nH]cn2)NC1=O [Compound 16, Ac-Nle-c[Asp-His-D-Nal(2')-Arg-D-Nal(2')-Lys]-NH2] | Agonism |  |  |  |  |  |  | 
CCCC[C@H](NC(C)=O)C(=O)N[C@H]1CC(=O)NCCCC[C@@H](C(N)=O)NC(=O)[C@H](Cc2c[nH]c3ccccc23)NC(=O)[C@H](CCCC)NC(=O)[C@@H](Cc2ccc3ccccc3c2)NC(=O)[C@H](Cc2c[nH]c3ccccc23)NC1=O [Compound 14, Ac-Nle-c[Asp-Trp-D-Nal(2')-Nle-Trp-Lys]-NH2] (Ac-[Nle]DW[d2Nal][Nle]WK-NH2; lactam 2-7) | Antagonist |  |  |  |  |  |  | 
CCCC[C@H](NC(C)=O)C(=O)N[C@H]1CC(=O)NCCCC[C@@H](C(N)=O)NC(=O)[C@H](Cc2c[nH]c3ccccc23)NC(=O)[C@H](Cc2ccc3ccccc3c2)NC(=O)[C@@H](Cc2ccccc2)NC(=O)[C@H](Cc2c[nH]cn2)NC1=O [Compound 15, Ac-Nle-c[Asp-His-D-Phe-Nal(2')-Trp-Lys]-NH2] | Agonism |  |  |  |  |  |  | 
Ac-Nle-c[Asp-His(1-Me)-D-Nal(2')-Arg-Trp-Lys]-NH2 [Compound 2] | Antagonist | Irreversible | pM range | Antagonist | nM range | Antagonist | nM range | Antagonist
Ac-Nle-c[Asp-His(3-Me)-D-Nal(2')-Arg-Nal(2')-Lys]-NH2 [Compound 6] | Antagonist | Irreversible | pM range | Antagonist | nM range | Antagonist | nM range | Antagonist
CCCC[C@H](NC(C)=O)C(=O)N[C@H]1CC(=O)NCCCC[C@@H](C(N)=O)NC(=O)[C@H](Cc2ccc3ccccc3c2)NC(=O)[C@H](CCCNC(=N)N)NC(=O)[C@@H](Cc2ccc3ccccc3c2)NC(=O)[C@H](Cc2c[nH]cn2)NC1=O [Compound 11, Ac-Nle-c[Asp-His-D-Nal(2')-Arg-Nal(2')-Lys]-NH2] | Antagonist -- Partial |  |  |  |  |  |  | 
CCCC[C@H](NC(C)=O)C(=O)N[C@H]1CC(=O)NCCCC[C@@H](C(N)=O)NC(=O)[C@H](Cc2ccc3ccccc3c2)NC(=O)[C@H](CCCNC(=N)N)NC(=O)[C@@H](Cc2ccc3ccccc3c2)NC(=O)[C@H](Cc2c[nH]c3ccccc23)NC1=O [Compound 1, Ac-Nle-c[Asp-Trp-D-Nal(2')-Arg-Nal(2')-Lys]-NH2] (Ac-[Nle]DW[d2Nal]R[2Nal]K-NH2; lactam 2-7) | Antagonist | Irreversible |  |  |  |  |  | 
Ac-Nle-c[Asp-His(3-Me)-D-Nal(2')-Arg-Trp-Lys]-NH2 [Compound 3] | Antagonist | Irreversible | pM range | Antagonist | nM range | Antagonist | nM range | Antagonist
CCCC[C@H](NC(C)=O)C(=O)N[C@H]1CC(=O)NCCCC[C@@H](C(N)=O)NC(=O)[C@H](Cc2c[nH]c3ccccc23)NC(=O)[C@H](CCCC)NC(=O)[C@@H](Cc2ccc3ccccc3c2)NC(=O)[C@H](Cc2c[nH]cn2)NC1=O [Compound 13, Ac-Nle-c[Asp-His-D-Nal(2')-Nle-Trp-Lys]-NH2] | Agonist |  |  |  |  |  |  | 
Ac-Nle-c[Asp-His(1-Me)-D-Nal(2')-Arg-Nal(2')-Lys]-NH2 [Compound 5] | Antagonist | Irreversible | pM range | Antagonist | nM range | Antagonist | nM range | Antagonist
CCCC[C@H](NC(C)=O)C(=O)N[C@H]1CC(=O)NCCCC[C@@H](C(N)=O)NC(=O)[C@H](Cc2ccc3ccccc3c2)NC(=O)[C@H](CCCNC(=N)N)NC(=O)[C@@H](Cc2ccccc2)NC(=O)[C@H](Cc2c[nH]c3ccccc23)NC1=O [Compound 10, Ac-Nle-c[Asp-Trp-D-Phe-Arg-Nal(2')-Lys]-NH2] (Ac-[Nle]DW[dF]R[2Nal]K-NH2; lactam 2-7) | potent agonist; also recorded: Full Agonist |  |  |  |  |  |  | 

— patent US6054556A, “Melanocortin receptor antagonists and agonists” (The Arizona Board of Regents on Behalf of the University of …, priority 1997, dated 2000)
